According to patent US20250382331A1, “Carrier Peptide Fragment and Use Thereof” (TOAGOSEI CO., LTD., priority 2022, published 2025):
Primed or numbered codes have the meaning given here. FAM = 5(6)-carboxyfluorescein; FAM″ = C-terminal FAM dye

Test system: NSC-34 cells
Test: Evaluation on cell membrane permeability by flow cytometry
Type: cell-based, mouse
Settings: 10 μM construct (additive), 0.5% DMSO, 20 hours incubation, flow cytometer FL2
Procedure: As the eukaryotic cells, NSC-34 cells (mouse motor neuron-like hybrid cell line) were used and the cell membrane permeability of the constructs 1 to 4 was analyzed. In Examples 1 to 4, the prepared samples 1 to 4 were used, respectively, and in Example 5, a FAM solution was used.
The NSC-34 cells were cultured in 10% fetal bovine serum (FBS)-containing Dulbecco's modified Eagle's medium (DMEM (Cat No. 044-29765, manufactured by FUJIFILM Wako Pure Chemical Corporation)), which is a normal culture medium.
The NSC-34 cells that adhered to a culture plate were cleaned with PBS and then, a 0.25%-trypsin/EDTA solution was added thereto, and incubation was performed for three minutes at 37° C. After the incubation, the aforementioned 10% FBS-containing DMEM was added to deactivate trypsin and then, five-minute centrifugal separation was performed at 150×g to precipitate the cells. After the supernatant generated by the centrifugal separation was removed, the 10% FBS-containing DMEM was added to the precipitate (cell pellet) to prepare a cell suspension of about 2×10^5 cells/mL. The cell suspension was added by 1 mL to a well of a commercially available six-hole (well) plate (manufactured by AGC TECHNO GLASS Co., Ltd.) so as to seed the cell (about 2×10^5 cells/well). In addition, the 2 mM sample solution 1 was diluted with the 10% FBS-containing DMEM to prepare the sample solution 1 in which the concentration of the sample 1 was 20 μM. Then, 1 mL of the 20 μM sample solution 1 was added to the well (that is, so that the concentration of the sample 1 became 10 μM and the DMSO concentration became 0.5% in the culture solution in the well). After that, the cell was incubated for 20 hours at 37° C. under a 5% CO2 condition.
After the 20-hour incubation, the culture supernatant was removed from the well and the cells in the well were cleaned twice with 1 mL of PBS. Next, 200 μL of the 0.25% trypsin/EDTA solution was added to the well and the incubation was performed for three minutes at 37° C. After the incubation, 400 μL of the 10% FBS-containing DMEM was added to the well to deactivate the trypsin. Subsequently, the cell suspension in the well was transferred to a tube and the cells were collected. After that, 600 μL of PBS was added further to the well to clean the well. Then, PBS in the well was transferred to the tube, so that the cells remaining in the well were collected in the tube. This tube was subjected to five-minute centrifugal separation at 4° C. under a condition of 210×g. After the centrifugal separation, the supernatant was removed and the precipitate (cell pellet) was suspended (cleaned) with 1 mL of PBS, which was followed by the centrifugal separation under the same condition as that described above. After this operation was repeated twice, the supernatant was removed and thus, the cells (cell pellet) cultured in a culture medium containing the sample 1 were obtained.
Regarding the obtained cells (cell pellet), the cell membrane permeability of the sample 1 was analyzed using a flow cytometer. […]
Using the aforementioned flow cytometer, gating based on forward scatter (FSC) and side scatter (SSC) was performed to set a gate about a cell group to be analyzed, and the fluorescence intensity was measured about the cell group in this gate. […] The fluorescence intensity was measured using a fluorescence detector FL2 of the flow cytometer (optimum detection wavelength around 543 nm) capable of detecting the fluorescence wavelength of FAM. […]

| Substance | MFI (median fluorescence intensity) |
| --- | --- |
| Ac-KKRTLRKNSNRKKR-FAM (Ac-KKRTLRKNSNRKKR-{FAM}) [Example 4] | 16.7 |
| Ac-KKRTLRKSNNRKKR-FAM (Ac-KKRTLRKSNNRKKR-{FAM}) [Example 3] | 13.6 |
| 5(6)-carboxyfluorescein [Example 5, reference compound] | 8.15 |
| Ac-KKRTLRKSSNRKKR-FAM (Ac-KKRTLRKSSNRKKR-{FAM″}) [Example 2] | 12.9 |
| Ac-KKRTLRKSNSRKKR-FAM (Ac-KKRTLRKSNSRKKR-{FAM″}) [Example 1] | 11.2 |
